Test results from PubChem BioAssay (NCI).
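Five concentrations, 48 hours, 96-well plates. GI50: concentration for 50% inhibition of growth. At the TGI there is no net growth.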

Experiments:
Test in all cases: NCI tumour cell line growth inhibition, 48 h
HL-60(TB) leukemia = tested on: HL-60(TB) leukemia
HT29 colon = tested on: HT29 colon
MDA-MB-435 = tested on: MDA-MB-435
NCI-H522 lung = tested on: NCI-H522 lung
HCT-116 colon = tested on: HCT-116 colon
PC-3 prostate = tested on: PC-3 prostate
IGROV1 ovarian = tested on: IGROV1 ovarian
HS 578T breast = tested on: HS 578T breast
EKVX NSCLC = tested on: EKVX NSCLC
SR leukemia = tested on: SR leukemia
A498 renal = tested on: A498 renal
OVCAR-4 ovarian = tested on: OVCAR-4 ovarian
HCT-15 colon = tested on: HCT-15 colon
KM12 colon = tested on: KM12 colon
CCRF-CEM leukemia = tested on: CCRF-CEM leukemia
M14 melanoma = tested on: M14 melanoma
SF-295 CNS = tested on: SF-295 CNS
NCI-H226 lung = tested on: NCI-H226 lung
786-0 renal = tested on: 786-0 renal
COLO 205 colon = tested on: COLO 205 colon
K-562 leukemia = tested on: K-562 leukemia
CAKI-1 renal = tested on: CAKI-1 renal
SNB-75 CNS = tested on: SNB-75 CNS
ACHN renal = tested on: ACHN renal
RXF 393 renal = tested on: RXF 393 renal
OVCAR-5 ovarian = tested on: OVCAR-5 ovarian
UO-31 renal = tested on: UO-31 renal
U251 CNS = tested on: U251 CNS
SF-268 CNS = tested on: SF-268 CNS
SK-MEL-5 melanoma = tested on: SK-MEL-5 melanoma
UACC-257 melanoma = tested on: UACC-257 melanoma
SK-MEL-28 melanoma = tested on: SK-MEL-28 melanoma
SF-539 CNS = tested on: SF-539 CNS
NCI-H23 lung = tested on: NCI-H23 lung
SNB-19 CNS = tested on: SNB-19 CNS
OVCAR-8 ovarian = tested on: OVCAR-8 ovarian
SN12C renal = tested on: SN12C renal
A549 NSCLC = tested on: A549 NSCLC
T-47D breast = tested on: T-47D breast
NCI-H460 lung = tested on: NCI-H460 lung
NCI/ADR-RES ovarian = tested on: NCI/ADR-RES ovarian
SK-MEL-2 melanoma = tested on: SK-MEL-2 melanoma
OVCAR-3 ovarian = tested on: OVCAR-3 ovarian
HOP-92 NSCLC = tested on: HOP-92 NSCLC
RPMI-8226 leukemia = tested on: RPMI-8226 leukemia
LOX IMVI melanoma = tested on: LOX IMVI melanoma
HCC-2998 colon = tested on: HCC-2998 colon
BT-549 breast = tested on: BT-549 breast
HOP-62 NSCLC = tested on: HOP-62 NSCLC
DU-145 prostate = tested on: DU-145 prostate
UACC-62 melanoma = tested on: UACC-62 melanoma
MDA-MB-231 breast = tested on: MDA-MB-231 breast
MALME-3M melanoma = tested on: MALME-3M melanoma
MCF7 breast = tested on: MCF7 breast
TK-10 renal = tested on: TK-10 renal
SW-620 colon = tested on: SW-620 colon
MOLT-4 leukemia = tested on: MOLT-4 leukemia
SK-OV-3 ovarian = tested on: SK-OV-3 ovarian

In the case of O=CC1C(Cl)=Nc2nc3ccccc3n2C1c1ccccc1 (stereo not drawn), the TGI (HL-60(TB) leukemia) is reported as 58.3 µM, the TGI (HT29 colon) is reported as 37.7 µM and the TGI (MDA-MB-435) is reported as > 100 µM. It also gave a TGI (NCI-H522 lung) of 27.3 µM, a TGI (HCT-116 colon) of 70.5 µM and a TGI (PC-3 prostate) of 40.7 µM. The TGI (IGROV1 ovarian) was 43.8 µM, the TGI (HS 578T breast) was 25.4 µM and the TGI (EKVX NSCLC) was 64.6 µM. For the same compound, the TGI (SR leukemia) was 14.4 µM, the TGI (A498 renal) was 23 µM and the TGI (OVCAR-4 ovarian) was 44 µM. The TGI (HCT-15 colon) was 30.9 µM, the TGI (KM12 colon) was 51.4 µM and the TGI (CCRF-CEM leukemia) was 63.1 µM. For the same compound, the TGI (M14 melanoma) was 64.6 µM, the TGI (SF-295 CNS) was > 100 µM and the TGI (NCI-H226 lung) was 38.1 µM. For the same compound, the TGI (786-0 renal) was 29.5 µM, the TGI (COLO 205 colon) was 58.9 µM and the TGI (K-562 leukemia) was 37.3 µM. It also gave a TGI (CAKI-1 renal) of 46.6 µM, a TGI (SNB-75 CNS) of 33.7 µM and a TGI (ACHN renal) of 33.3 µM. The TGI (RXF 393 renal) was 30.9 µM, the TGI (OVCAR-5 ovarian) was 79.6 µM and the TGI (UO-31 renal) was 48.4 µM. For the same compound, the TGI (U251 CNS) was 33.7 µM, the TGI (SF-268 CNS) was 37.2 µM and the TGI (SK-MEL-5 melanoma) was 45.5 µM. It also gave a TGI (UACC-257 melanoma) of 58.2 µM, a TGI (SK-MEL-28 melanoma) of 30.3 µM and a TGI (SF-539 CNS) of 34 µM. For the same compound, the TGI (NCI-H23 lung) was 56.6 µM, the TGI (SNB-19 CNS) was > 100 µM and the TGI (OVCAR-8 ovarian) was 52.9 µM. The TGI (SN12C renal) was 44.8 µM, the TGI (A549 NSCLC) was 76.6 µM and the TGI (T-47D breast) was 41.2 µM. The TGI (NCI-H460 lung) was > 100 µM, the TGI (NCI/ADR-RES ovarian) was 65.6 µM and the TGI (SK-MEL-2 melanoma) was 27.3 µM. It also gave a TGI (OVCAR-3 ovarian) of 43.2 µM, a TGI (HOP-92 NSCLC) of 25.5 µM and a TGI (RPMI-8226 leukemia) of 43.8 µM. For the same compound, the TGI (LOX IMVI melanoma) was 29 µM, the TGI (HCC-2998 colon) was 34.8 µM and the TGI (BT-549 breast) was 29 µM. For the same compound, the TGI (HOP-62 NSCLC) was 44.2 µM, the TGI (DU-145 prostate) was 31.4 µM and the TGI (UACC-62 melanoma) was 50 µM. For the same compound, the TGI (MDA-MB-231 breast) was 38.6 µM, the TGI (MALME-3M melanoma) was 52.5 µM and the TGI (MCF7 breast) was 42.7 µM. It also gave a TGI (TK-10 renal) of 51.4 µM and a TGI (SW-620 colon) of 40.2 µM.

O=C(/C=C/c1ccccn1)c1ccc(OCc2nnc(-c3ccc(Cl)cc3)o2)cc1 gave a GI50 (HL-60(TB) leukemia) of 2460 nM, a TGI (HL-60(TB) leukemia) of 7.68 µM and a GI50 (HT29 colon) of 1850 nM. It also gave a TGI (HT29 colon) of 3.99 µM, a GI50 (MDA-MB-435) of 1710 nM and a TGI (MDA-MB-435) of 3.6 µM. It also gave a GI50 (NCI-H522 lung) of 1890 nM, a TGI (NCI-H522 lung) of 3.94 µM and a GI50 (HCT-116 colon) of 450 nM. The TGI (HCT-116 colon) was 1.62 µM, the GI50 (PC-3 prostate) was 1870 nM and the TGI (PC-3 prostate) was 3.9 µM. The GI50 (IGROV1 ovarian) was 1960 nM, the TGI (IGROV1 ovarian) was 3.62 µM and the GI50 (HS 578T breast) was 3.33 µM. It also gave a TGI (HS 578T breast) of 10.3 µM, a GI50 (SR leukemia) of 291 nM and a TGI (SR leukemia) of 1.93 µM. The GI50 (A498 renal) was 4.5 µM, the TGI (A498 renal) was 17.2 µM and the GI50 (OVCAR-4 ovarian) was 3.42 µM. For the same compound, the TGI (OVCAR-4 ovarian) was 12.4 µM, the GI50 (HCT-15 colon) was 1620 nM and the TGI (HCT-15 colon) was 3.36 µM. For the same compound, the GI50 (KM12 colon) was 1480 nM, the TGI (KM12 colon) was 3.3 µM and the GI50 (CCRF-CEM leukemia) was 1830 nM. The TGI (CCRF-CEM leukemia) was 5.88 µM, the GI50 (M14 melanoma) was 1990 nM and the TGI (M14 melanoma) was 3.87 µM. The GI50 (SF-295 CNS) was 1680 nM, the TGI (SF-295 CNS) was 3.33 µM and the GI50 (NCI-H226 lung) was 2690 nM. For the same compound, the TGI (NCI-H226 lung) was 7.79 µM, the GI50 (786-0 renal) was 1780 nM and the TGI (786-0 renal) was 3.23 µM. It also gave a GI50 (COLO 205 colon) of 2230 nM, a TGI (COLO 205 colon) of 4.39 µM and a GI50 (K-562 leukemia) of 2000 nM. The TGI (K-562 leukemia) was 4.8 µM, the GI50 (CAKI-1 renal) was 1690 nM and the TGI (CAKI-1 renal) was 3.24 µM. The GI50 (SNB-75 CNS) was 1460 nM, the TGI (SNB-75 CNS) was 2.89 µM and the GI50 (ACHN renal) was 1660 nM. The TGI (ACHN renal) was 3.11 µM, the GI50 (RXF 393 renal) was 1700 nM and the TGI (RXF 393 renal) was 3.17 µM. The GI50 (OVCAR-5 ovarian) was 2490 nM, the TGI (OVCAR-5 ovarian) was 4.89 µM and the GI50 (UO-31 renal) was 1810 nM. For the same compound, the TGI (UO-31 renal) was 3.26 µM, the GI50 (U251 CNS) was 1640 nM and the TGI (U251 CNS) was 3.05 µM. It also gave a GI50 (SK-MEL-5 melanoma) of 1560 nM, a TGI (SK-MEL-5 melanoma) of 3.14 µM and a GI50 (UACC-257 melanoma) of 1980 nM. The TGI (UACC-257 melanoma) was 4.06 µM, the GI50 (SK-MEL-28 melanoma) was 1770 nM and the TGI (SK-MEL-28 melanoma) was 3.36 µM. For the same compound, the GI50 (SF-539 CNS) was 1660 nM, the TGI (SF-539 CNS) was 3.09 µM and the GI50 (NCI-H23 lung) was 2130 nM. For the same compound, the TGI (NCI-H23 lung) was 4.58 µM, the GI50 (SNB-19 CNS) was 1860 nM and the TGI (SNB-19 CNS) was 3.98 µM. The GI50 (OVCAR-8 ovarian) was 2480 nM, the TGI (OVCAR-8 ovarian) was 5.57 µM and the GI50 (SN12C renal) was 2410 nM. For the same compound, the TGI (SN12C renal) was 5.8 µM, the GI50 (A549 NSCLC) was 2060 nM and the TGI (A549 NSCLC) was 4.82 µM. For the same compound, the GI50 (T-47D breast) was 2650 nM, the TGI (T-47D breast) was 8.64 µM and the GI50 (NCI-H460 lung) was 3.24 µM. The TGI (NCI-H460 lung) was 11.1 µM, the GI50 (NCI/ADR-RES ovarian) was 3.67 µM and the TGI (NCI/ADR-RES ovarian) was 41.3 µM. For the same compound, the GI50 (SK-MEL-2 melanoma) was 3.29 µM, the TGI (SK-MEL-2 melanoma) was 8.61 µM and the GI50 (OVCAR-3 ovarian) was 1730 nM. The TGI (OVCAR-3 ovarian) was 3.25 µM, the GI50 (HOP-92 NSCLC) was 2350 nM and the TGI (HOP-92 NSCLC) was 6.33 µM. For the same compound, the GI50 (RPMI-8226 leukemia) was 296 nM, the TGI (RPMI-8226 leukemia) was 1.06 µM and the GI50 (MOLT-4 leukemia) was 2910 nM. The TGI (MOLT-4 leukemia) was 6.68 µM, the GI50 (LOX IMVI melanoma) was 1570 nM and the TGI (LOX IMVI melanoma) was 3.01 µM. It also gave a GI50 (HCC-2998 colon) of 1800 nM, a TGI (HCC-2998 colon) of 3.26 µM and a GI50 (BT-549 breast) of 1920 nM. For the same compound, the TGI (BT-549 breast) was 3.46 µM, the GI50 (HOP-62 NSCLC) was 2260 nM and the TGI (HOP-62 NSCLC) was 5.65 µM. The GI50 (DU-145 prostate) was 1620 nM, the TGI (DU-145 prostate) was 3.02 µM and the GI50 (UACC-62 melanoma) was 1830 nM. It also gave a TGI (UACC-62 melanoma) of 3.55 µM, a GI50 (MDA-MB-231 breast) of 2270 nM and a TGI (MDA-MB-231 breast) of 5.09 µM. It also gave a GI50 (MALME-3M melanoma) of 2280 nM, a TGI (MALME-3M melanoma) of 4.46 µM and a GI50 (MCF7 breast) of 378 nM. For the same compound, the TGI (MCF7 breast) was 1.68 µM, the GI50 (TK-10 renal) was 2680 nM and the TGI (TK-10 renal) was 6.24 µM. The GI50 (SW-620 colon) was 1910 nM, the TGI (SW-620 colon) was 3.93 µM and the GI50 (SK-OV-3 ovarian) was 3.82 µM. It also gave a TGI (SK-OV-3 ovarian) of 10.4 µM.
